Patent US11602514B2, “Medicament having anti-inflammatory bowel disease function, and preparation method therefor and application thereof” (SUZHOU PHARMAVAN CO., LTD, priority 2018, dated 2023)
Entries after “also recorded” stand apart in the source; their conditions may differ.

Tests used:
[1] = tested on: IL-6 secreted by mouse macrophages RAW264.7 induced by LPS; test: IL-6 secreted by LPS-induced RAW264.7 macrophages (ELISA); format: cell-based; settings: LPS 100 ng/mL, 24 h; FIG. 5
Method: (§1) Effects of myricanol derivatives on the expression of inflammatory factors such as IL-6, TNF-α, PEG2 secreted by a mouse macrophage cell strain RAW 264.7 induced by bacterial lipopolysaccharide (hereinafter referred to as LPS) stimulus: A pre-prepared cell suspension was inoculated in a 96-well plate at 15000 cells/well and 100 μl/well and cultured overnight in an incubator with 5% CO2 at 37° C. At 80% cell confluence, the original culture medium was discarded, and each well was added with 100 μl of prepared drug solution to be tested with a different concentration, cultured for 1 h, and then added with a LPS solution, where the final concentration of LPS in the culture system was 100 ng/mL. Each concentration was set with 3 parallel wells, and a cell control group (no drug and no solvent) and a blank medium control group (no cells, a well for zero adjustment) were set. They were cultured for another 24 h. Cell culture supernatants were aspirated, and an R&D ELISA detection kit (M6000B; MTA00B; VAL601) was used for detecting the expression of the inflammatory factors such as IL-6, TNF-α, and PEG2 in each group. Cell proteins were collected, and a […] method was used for detecting COX-2 protein expression in each group.

[2] = tested on: PGE2 secreted by mouse macrophages RAW264.7 induced by LPS; test: PGE2 secreted by LPS-induced RAW264.7 macrophages (ELISA); format: cell-based; settings: for inhibition of PGE2 secreted by RAW264.7 induced by LPS: LPS 100 ng/mL, 24 h, FIGS. 7 and 9
Method: as §1

[3] = tested on: mouse macrophages RAW264.7; test: effect on proliferation activity of mouse macrophages RAW264.7; format: cell-based; settings: n=3, FIG. 4
[4] = tested on: COX2 protein expressed by mouse macrophages RAW264.7; test: COX2 protein expression in LPS-induced RAW264.7 macrophages (blot); format: cell-based; settings: FIG. 8
Method: as §1

SD rats = test: acute toxicity, single oral dose; format: in vivo; settings: single intragastric administration, 14 days observation
From the text: Trial method: 30 SD rats, half male and half female, were used. The average weight was 160-200 g for female rats and 180-220 g for male rats when grouped. An individual weight should be within ±20% of the average weight. Before the test, animals needed to accommodate to the environment for at least 5 days, and healthy rats (female rats should be not pregnant) were selected as test animals. Matter detected during the accommodation period mainly was: whether the rats were consistent with quality indexes required in the order; detection of general conditions; and whether the weight was within the weight range required by the test. Unqualified abnormal animals were excluded from the test. A single dosage was orally administered to rats at a low, medium, or high dose. […] A control group was set with the oral administration of the same volume of solvent.
The rats were observed about 0-2 h and 4-6 h after each administration. If a toxicity symptom occurs, the rats may be observed more times. (2) Gross anatomical observation: on the 14th day of the test, all surviving rats in each group were dissected and observed, and for administration sites and gross dissection, abnormal organs and tissues which were observed and found to be potentially related to test samples were photographed and recorded. (3) Disposal of dying animals: status of rats and observation time were recorded, and their weights were measured. (4) Disposal of dead animals: the time of death or when a rat was found dead were recorded. The rat was measured for weight before quickly dissected for gross observation and speculated for a cause of death.

Compound	inhibition of LPS-induced IL-6 secretion of RAW264.7 cells [1]	inhibition of PGE2 secreted by RAW264.7 induced by LPS [2]	effect on proliferation activity of mouse macrophages RAW264.7 ([3]; 30 μM)	inhibition of protein expression of IBD-related COX2 [4]	further results
5-n-propoxy myricanol [compound B]	very strong effects of inhibiting	significant effect of inhibiting PGE2; also recorded: strong ability to inhibit	no significant effects	can inhibit	–
COc1c2cc(c(OC(C)=O)c1OC)CCCCC(O)CCc1ccc(O)c-2c1 (centres unmarked) [compound G, 5-acetoxy myricanol]	very strong effects of inhibiting	significant effect of inhibiting PGE2; also recorded: strong ability to inhibit	–	can inhibit	Test Endpoint (toxic side effects) (SD rats; 100 mg/kg): No obvious toxic; Test Endpoint (toxic side effects) (SD rats; 300 mg/kg): No obvious toxic; Test Endpoint (toxic side effects) (SD rats; 1000 mg/kg): No obvious toxic; effect on proliferation activity of mouse macrophages RAW264.7 ([3]; 40 μM): no significant effects; COX2 protein expression inhibition compared with myricanol [4]: better inhabitation effects than myricanol
COc1c2cc(c(OC(C)=O)c1OC)CCCCC(O)CCc1ccc(OC(C)=O)c-2c1 (centres unmarked) [compound A, 5,17-diacetoxy myricanol]	very strong effects of inhibiting	significant effect of inhibiting PGE2; also recorded: strong ability to inhibit	–	can inhibit	Test Endpoint (toxic side effects) (SD rats; 100 mg/kg): No obvious toxic; Test Endpoint (toxic side effects) (SD rats; 300 mg/kg): No obvious toxic; Test Endpoint (toxic side effects) (SD rats; 1000 mg/kg): No obvious toxic; effect on proliferation activity of mouse macrophages RAW264.7 ([3]; 40 μM): no significant effects
COc1c2cc(c(OCc3ccccc3)c1OC)CCCCC(O)CCc1ccc(O)c-2c1 (centres unmarked) [compound C, 5-benzyloxy myricanol]	–	–	no significant effects	–	–
C=CCOc1c2cc(c(OC)c1OC)-c1cc(ccc1O)CCC(O)CCCC2 (centres unmarked) [compound E, 5-allyloxy myricanol]	–	–	no significant effects	–	–
C=CCOc1ccc2cc1-c1cc(c(OCC=C)c(OC)c1OC)CCCCC(O)CC2 (centres unmarked) [compound D, 5,17-diallyloxy myricanol]	–	–	no significant effects	–	–
C=CCOc1ccc2cc1-c1cc(c(OCC=C)c(OC)c1OC)CCCCC(=O)CC2 [compound F, 5,17-allyloxy myricanone]	–	–	–	–	effect on proliferation activity of mouse macrophages RAW264.7 ([3]; 80 μM): no significant effects
COc1c2cc(c(O)c1OC)CCCC[C@@H](O)CCc1ccc(O)c-2c1 [myricanol, reference compound]	–	strong ability to inhibit	–	can inhibit	PGE2 ([2]; LPS + 20 μM, LPS alone 1154.90 ± 84.20, control −407.37 ± 57.67): 904.98 ± 18.02 pg/mL
